Data reported in patent US20230416240A1, “KAT6 TARGETING COMPOUNDS” (Prelude Therapeutics Incorporated, priority 2022, published 2023).

What was measured:
[1] = biological target: T1, KAT6A (Homo sapiens, UniProt Q92794); assay: Western Blot KAT6A Degradation Assessment; assay type: cell-based; settings: 0.1 μM compound, 24 hours of treatment, HCC1954 cell line, KAT6A normalized to GAPDH and DMSO
T1 construct: These studies were conducted in the HCC1954 cell line which harbors a KAT6A copy number amplification; endogenous in cells; host or cells: HCC1954
T1 sequence (Q92794 whole entry): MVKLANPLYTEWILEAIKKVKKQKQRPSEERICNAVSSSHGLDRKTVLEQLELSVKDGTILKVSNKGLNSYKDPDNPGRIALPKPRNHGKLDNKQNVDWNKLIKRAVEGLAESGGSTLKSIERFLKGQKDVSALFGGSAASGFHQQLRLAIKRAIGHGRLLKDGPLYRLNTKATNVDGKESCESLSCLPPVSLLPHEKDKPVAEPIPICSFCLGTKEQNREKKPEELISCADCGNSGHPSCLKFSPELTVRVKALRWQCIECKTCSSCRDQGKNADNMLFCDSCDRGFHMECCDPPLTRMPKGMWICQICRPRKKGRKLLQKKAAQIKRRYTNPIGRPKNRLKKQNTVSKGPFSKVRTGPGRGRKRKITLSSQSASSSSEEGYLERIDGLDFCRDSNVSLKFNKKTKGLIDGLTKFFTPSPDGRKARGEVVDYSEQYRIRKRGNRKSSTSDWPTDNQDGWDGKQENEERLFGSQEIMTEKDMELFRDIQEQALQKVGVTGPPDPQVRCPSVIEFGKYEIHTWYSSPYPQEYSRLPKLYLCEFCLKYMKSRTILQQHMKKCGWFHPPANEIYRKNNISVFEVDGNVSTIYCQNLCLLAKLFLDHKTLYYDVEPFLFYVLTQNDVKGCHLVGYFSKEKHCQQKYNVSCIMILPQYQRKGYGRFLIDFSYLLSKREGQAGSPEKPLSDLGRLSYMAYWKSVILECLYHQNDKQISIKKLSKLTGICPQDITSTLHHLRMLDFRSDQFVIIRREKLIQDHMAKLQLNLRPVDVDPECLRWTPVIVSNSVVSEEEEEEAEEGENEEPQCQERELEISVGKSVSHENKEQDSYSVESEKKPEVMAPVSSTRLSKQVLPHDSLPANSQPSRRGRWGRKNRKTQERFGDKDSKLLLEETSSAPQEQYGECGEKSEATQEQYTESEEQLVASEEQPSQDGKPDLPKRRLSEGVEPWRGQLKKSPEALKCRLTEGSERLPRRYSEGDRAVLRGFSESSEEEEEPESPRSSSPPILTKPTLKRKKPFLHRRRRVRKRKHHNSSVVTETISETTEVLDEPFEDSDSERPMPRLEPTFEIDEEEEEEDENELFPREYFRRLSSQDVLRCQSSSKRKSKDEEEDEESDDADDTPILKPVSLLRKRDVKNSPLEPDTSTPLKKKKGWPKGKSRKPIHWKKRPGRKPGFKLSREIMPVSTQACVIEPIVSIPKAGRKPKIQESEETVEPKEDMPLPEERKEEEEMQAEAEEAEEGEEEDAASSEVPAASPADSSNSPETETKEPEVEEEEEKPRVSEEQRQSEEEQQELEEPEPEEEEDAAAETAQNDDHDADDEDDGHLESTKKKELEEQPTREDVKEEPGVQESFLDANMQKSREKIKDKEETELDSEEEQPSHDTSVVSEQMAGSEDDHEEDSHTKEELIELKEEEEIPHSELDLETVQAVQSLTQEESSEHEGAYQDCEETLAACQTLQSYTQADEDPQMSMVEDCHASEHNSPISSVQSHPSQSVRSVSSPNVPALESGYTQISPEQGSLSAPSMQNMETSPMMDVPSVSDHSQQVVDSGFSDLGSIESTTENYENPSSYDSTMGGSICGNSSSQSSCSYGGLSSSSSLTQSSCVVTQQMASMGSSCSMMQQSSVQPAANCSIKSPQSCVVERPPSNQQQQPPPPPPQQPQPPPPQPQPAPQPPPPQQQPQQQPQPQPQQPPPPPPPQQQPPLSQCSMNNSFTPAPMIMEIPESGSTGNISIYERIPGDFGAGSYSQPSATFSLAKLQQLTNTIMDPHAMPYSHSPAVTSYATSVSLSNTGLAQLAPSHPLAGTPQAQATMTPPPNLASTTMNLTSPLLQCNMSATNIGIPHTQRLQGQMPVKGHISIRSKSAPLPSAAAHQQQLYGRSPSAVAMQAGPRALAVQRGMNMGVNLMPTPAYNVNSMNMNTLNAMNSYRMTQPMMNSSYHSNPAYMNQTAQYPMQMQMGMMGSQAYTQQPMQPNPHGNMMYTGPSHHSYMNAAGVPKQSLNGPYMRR
Method: The activity of compounds was evaluated by measuring KAT6A protein levels as a readout of KAT6A degradation ability using western blot. These studies were conducted in the HCC1954 cell line which harbors a KAT6A copy number amplification. Cells were maintained in a 37° C. incubator at 5% CO2 in the following media: RPMI 1640, ATCC© Modification (Gibco, A10491-01) supplemented with 10% v/v FBS (Gibco, 26140-079) and 1% penicillin streptomycin (Gibco, 15140-122). Cells were seeded in 6-well plates at a density of 300,000 cells/well and allowed to attach overnight in an incubator. Compounds dissolved in DMSO were prepared at 1000× the desired final concentration such that the final percentage of DMSO was 0.1%. After 24 hours of treatment, cells were washed with phosphate buffered saline (PBS) (Corning, 21-040-CV), detached with trypsin-EDTA (Gibco, #25200-056), and pelleted in complete RPMI media in a microcentrifuge for 5 min at 1500 rpm. Protein was extracted from cell pellets by re-suspending in 15 uL PBS before adding 45 uL of lysis buffer composed of 4% SDS, 1× protease and phosphatase inhibitors, and 1 mM PMSF (Cell Signaling Technology, #8553S). Lysates were transferred to homogenizer columns (Omega Biotek, #HCR003) and centrifuged for 1.5 min at 12,000 rpm.
Homogenized lysates were quantified by BCA assay (ThermoScientific, Pierce BCA Protein Assay, #23223, #23224) as per manufacturer instructions. Samples were then diluted in 4× Laemmli buffer (Biorad, #1610747) to a 1× solution which was boiled at 95° C. for 5 minutes. To assess KAT6A protein expression, samples were run on 26 well gels (Biorad, 4-15% Criterion TGX Precast gels, #5671085) at 120V for approximately 1 hour. Protein was transferred to low-fluorescence PVDF membranes (Millipore Sigma, #IPFL00010) using Trans-Blot Turbo Transfer System (Biorad). Membranes were then probed with KAT6A (Cell Signaling Technology, #78462) and GAPDH (Cell Signaling Technology, #5174S) primary, and fluorescently tagged secondary antibodies (LI-COR, IRDye 800CW Goat anti-rabbit #926-32211; IRDye 680RD Goat anti-mouse #926-68070) at manufacturer recommended conditions using the iBind Flex western device (Thermofisher, SLF2000). Membranes were washed briefly in water and scanned with a LI-COR Odyssey CLx. Quantification of bands was assessed using Image Studio Ver 5.2. to normalize KAT6A expression to GAPDH loading controls before representing KAT6A expression as a percentage of that observed in DMSO.

[2] = biological target: T2, HiBit tagged KAT6A (Homo sapiens, UniProt Q92794); assay: HiBit KAT6A Degradation Assessment; assay type: cell-based; settings: HeLa cells with HiBit tagged KAT6A, 18 h of treatment, 9-point serial dilution
T2 construct: host or cells: HeLa
T2 sequence (Q92794 whole entry): as above
Method: The degradation activity of compounds was evaluated by measuring levels of KAT6A protein using the HiBiT system. These studies were conducted in HeLa cells with a HiBit tagged KAT6A. Cells were maintained in a 37° C. incubator at 5% CO2 in EMEM (ATCC, 30-2003) supplemented with 10% v/v FBS (Gibco, 26140-079) and 1% penicillin streptomycin. Cells were seeded in 384-well plates at a density of 2,000 cells/well. Compounds dissolved in DMSO were added in 9-point serial dilution. After 18 h of treatment, KAT6A levels were measured using the Nano-Glo® HiBiT Lytic Detection System (Promega catalog number N3030) per manufacturer's instructions. Luminescence signal was measured with a multimode plate reader (Envision 2105, Perkin Elmer). Luminescence values were normalized to background and DMSO controls to quantify KAT6A for each condition. Results were analyzed, and DC50 and Dmax values obtained using a four-parameter logistic curve fit.

SMILES: COc1cc(Cn2cccn2)cc2onc(NS(=O)(=O)c3cccc(N4CCN(CCCC5CCN(c6ccc7c(c6)C(=O)N(C6CCC(=O)NC6=O)C7=O)CC5)CC4)c3)c12 (centres unmarked) [Example 2, N-(6-((1H-Pyrazol-1-yl)methyl)-4-methoxybenzo[d]isoxazol-3-yl)-3-(4-(3-(1-(2-(2,6-dioxopiperidin-3-yl)-1,3-dioxoisoindolin-5-yl)piperidin-4-yl)propyl)piperazin-1-yl)benzenesulfonamide]
- inhibition at 0.1 µM [1]: 50 to 75%
- Dmax [2]: 25 to 50%

SMILES: COc1cc(Cn2cccn2)cc2onc(NS(=O)(=O)c3cccc(N4CCC(CN5CCC(Oc6ccc7c(c6)C(=O)N(C6CCC(=O)NC6=O)C7=O)CC5)C4)c3)c12 (centres unmarked) [Example 23, N-(6-((1H-Pyrazol-1-yl)methyl)-4-methoxybenzo[d]isoxazol-3-yl)-3-(3-((4-((2-(2,6-dioxopiperidin-3-yl)-1,3-dioxoisoindolin-5-yl)oxy)piperidin-1-yl)methyl)pyrrolidin-1-yl)benzenesulfonamide]
- Dmax [2]: 25 to 50%

SMILES: COc1cc(Cn2cccn2)cc2onc(NS(=O)(=O)c3cccc(N4CC5(CCN(CC6CCN(c7ccc8c(c7)C(=O)N(C7CCC(=O)NC7=O)C8)C6)CC5)C4)c3)c12 (centres unmarked) [Example 34, N-(6-((1H-pyrazol-1-yl)methyl)-4-methoxybenzo[d]isoxazol-3-yl)-3-(7-((1-(2-(2,6-dioxopiperidin-3-yl)-3-oxoisoindolin-5-yl)pyrrolidin-3-yl)methyl)-2,7-diazaspirononan-2-yl)benzenesulfonamide]
- DC50 [2]: < 10 nM
- Dmax [2]: 50 to 75%

SMILES: COc1cc(Cn2cccn2)cc2onc(NS(=O)(=O)c3cccc(N4CCC5(CCN(C[C@@H]6CCN(c7ccc8c(c7)C(=O)N(C7CCC(=O)NC7=O)C8=O)C6)CC5)C4)c3)c12 (stereo partly drawn) [Example 15, N-(6-((1H-Pyrazol-1-yl)methyl)-4-methoxybenzo[d]isoxazol-3-yl)-3-(8-(((3S)-1-(2-(2,6-dioxopiperidin-3-yl)-1,3-dioxoisoindolin-5-yl)pyrrolidin-3-yl)methyl)-2,8-diazaspiro[4.5]decan-2-yl)benzenesulfonamide]
- DC50 [2]: < 10 nM
- Dmax [2]: 50 to 75%

SMILES: COc1c(N2CC3(CCN(C[C@@H]4CCN(c5ccc6c(c5)C(=O)N(C5CCC(=O)NC5=O)C6=O)C4)CC3)C2)cccc1S(=O)(=O)Nc1noc2cc(Cn3cccn3)cc(OC)c12 (stereo partly drawn) [Example 30, N-(6-((1H-pyrazol-1-yl)methyl)-4-methoxybenzo[d]isoxazol-3-yl)-3-(7-(((3S)-1-(2-(2,6-dioxopiperidin-3-yl)-1,3-dioxoisoindolin-5-yl)pyrrolidin-3-yl)methyl)-2,7-diazaspiro[3.5]nonan-2-yl)-2-methoxybenzenesulfonamide]
- DC50 [2]: < 10 nM
- Dmax [2]: > 75%

SMILES: COc1cc(Cn2cccn2)cc2onc(NS(=O)(=O)c3cccc(N4CCN(CC5CC6(CCN(c7ccc8c(c7)C(=O)N(C7CCC(=O)NC7=O)C8=O)CC6)C5)CC4)c3)c12 (centres unmarked) [Example 19, N-(6-((1H-Pyrazol-1-yl)methyl)-4-methoxybenzo[d]isoxazol-3-yl)-3-(4-((7-(2-(2,6-dioxopiperidin-3-yl)-1,3-dioxoisoindolin-5-yl)-7-azaspiro[3.5]nonan-2-yl)methyl)piperazin-1-yl)benzenesulfonamide]
- DC50 [2]: 10 to 100 nM
- Dmax [2]: 50 to 75%

SMILES: COc1c(N2CC3(CCN(C[C@H]4CCN(c5ccc6c(c5)CN(C5CCC(=O)NC5=O)C6=O)C4)CC3)C2)cccc1S(=O)(=O)Nc1noc2cc(Cn3cccn3)cc(OC)c12 (stereo partly drawn) [Example 27, N-(6-((1H-Pyrazol-1-yl)methyl)-4-methoxybenzo[d]isoxazol-3-yl)-3-(7-(((3R)-1-(2-(2,6-dioxopiperidin-3-yl)-1-oxoisoindolin-5-yl)pyrrolidin-3-yl)methyl)-2,7-diazaspiro[3.5]nonan-2-yl)-2-methoxybenzenesulfonamide]
- DC50 [2]: < 10 nM
- Dmax [2]: > 75%

SMILES: COc1cc(Cn2cccn2)cc2onc(NS(=O)(=O)c3cccc(N4CC5(CCN(CC6(C)CCN(c7ccc8c(c7)C(=O)N(C7CCC(=O)NC7=O)C8=O)C6)CC5)C4)c3)c12 (centres unmarked) [Example 12, N-(6-((1H-Pyrazol-1-yl)methyl)-4-methoxybenzo[d]isoxazol-3-yl)-3-(7-((1-(2-(2,6-dioxopiperidin-3-yl)-1,3-dioxoisoindolin-5-yl)-3-methylpyrrolidin-3-yl)methyl)-2,7-diazaspiro[3.5]nonan-2-yl)benzenesulfonamide]
- DC50 [2]: < 10 nM
- Dmax [2]: 50 to 75%

SMILES: COc1cc(Cn2cccn2)cc2onc(NS(=O)(=O)c3cccc(N4CCN(CC5CCN(c6cccc7c6C(=O)N(C6CCC(=O)NC6=O)C7=O)CC5)CC4)c3)c12 (centres unmarked) [Example 32, 3-[4-[[1-[2-(2,6-Dioxopiperidin-3-yl)-1,3-dioxoisoindol-4-yl]piperidin-4-yl]methyl]piperazin-1-yl]-N-[4-methoxy-6-(pyrazol-1-ylmethyl)-1,2-benzoxazol-3-yl]benzenesulfonamide]
- DC50 [2]: 10 to 100 nM
- Dmax [2]: 50 to 75%

SMILES: COc1cc(Cn2cccn2)cc2onc(NS(=O)(=O)c3cccc(N4CC5(CCN(CC6(F)CCN(c7ccc8c(c7)C(=O)N(C7CCC(=O)NC7=O)C8=O)C6)CC5)C4)c3)c12 (centres unmarked) [Example 13, N-(6-((1H-Pyrazol-1-yl)methyl)-4-methoxybenzo[d]isoxazol-3-yl)-3-(7-((1-(2-(2,6-dioxopiperidin-3-yl)-1,3-dioxoisoindolin-5-yl)-3-fluoropyrrolidin-3-yl)methyl)-2,7-diazaspiro[3.5]nonan-2-yl)benzenesulfonamide]
- DC50 [2]: 10 to 100 nM
- Dmax [2]: 50 to 75%

SMILES: COc1cc(Cn2cccn2)cc2onc(NS(=O)(=O)c3cccc(N4CCC(NC[C@@H]5CCN(c6ccc7c(c6)CN([C@H]6CCC(=O)NC6=O)C7=O)C5)CC4)c3)c12 [Example 36, N-(6-((1H-pyrazol-1-yl)methyl)-4-methoxybenzo[d]isoxazol-3-yl)-3-(4-((((S)-1-(2-((S)-2,6-dioxopiperidin-3-yl)-1-oxoisoindolin-5-yl)pyrrolidin-3-yl)methyl)amino)piperidin-1-yl)benzenesulfonamide]
- DC50 [2]: 10 to 100 nM
- Dmax [2]: > 75%

SMILES: COc1cc(Cn2cccn2)cc2onc(NS(=O)(=O)c3cccc(N4CC5(CCN(C[C@@H]6CCN(c7ccc8c(c7)C(=O)N(C7CCC(=O)NC7=O)C8=O)C6)CC5)C4)c3)c12 (stereo partly drawn) [Example 16, N-(6-((1H-Pyrazol-1-yl)methyl)-4-methoxybenzo[d]isoxazol-3-yl)-3-(7-(((3S)-1-(2-(2,6-dioxopiperidin-3-yl)-1,3-dioxoisoindolin-5-yl)pyrrolidin-3-yl)methyl)-2,7-diazaspiro[3.5]nonan-2-yl)benzenesulfonamide]
- DC50 [2]: < 10 nM
- Dmax [2]: > 75%

SMILES: COc1cc(Cn2cccn2)cc2onc(NS(=O)(=O)c3cccc(N4CCN(C(=O)C5CCN(c6ccc7c(c6)C(=O)N(C6CCC(=O)NC6=O)C7=O)C5)CC4)c3)c12 (centres unmarked) [Example 24, N-(6-((1H-pyrazol-1-yl)methyl)-4-methoxybenzo[d]isoxazol-3-yl)-3-(4-(1-(2-(2,6-dioxopiperidin-3-yl)-1,3-dioxoisoindolin-5-yl)pyrrolidine-3-carbonyl)piperazin-1-yl)benzenesulfonamide]
- Dmax [2]: ≤ 25%

SMILES: COc1cc(Cn2cccn2)cc2onc(NS(=O)(=O)c3cccc(N4CCC5(CCN(C[C@@H]6CCN(c7ccc8c(c7)CN(C7CCC(=O)NC7=O)C8=O)C6)CC5)CC4)c3)c12 (stereo partly drawn) [Example 39, N-(6-((1H-Pyrazol-1-yl)methyl)-4-methoxybenzo[d]isoxazol-3-yl)-3-(9-(((3S)-1-(2-(2,6-dioxopiperidin-3-yl)-1-oxoisoindolin-5-yl)pyrrolidin-3-yl)methyl)-3,9-diazaspiro[5.5]undecan-3-yl)benzenesulfonamide]
- DC50 [2]: < 10 nM
- Dmax [2]: > 75%
